Results: ChEMBL document CHEMBL5543064, “Interleukin-1β converting enzyme (ICE): A comprehensive review on discovery and development of caspase-1 inhibitors” (Eur J Med Chem, 2023)

Target: T1, Caspase-1 (Homo sapiens, UniProt P29466)
T1 sequence (P29466 whole entry): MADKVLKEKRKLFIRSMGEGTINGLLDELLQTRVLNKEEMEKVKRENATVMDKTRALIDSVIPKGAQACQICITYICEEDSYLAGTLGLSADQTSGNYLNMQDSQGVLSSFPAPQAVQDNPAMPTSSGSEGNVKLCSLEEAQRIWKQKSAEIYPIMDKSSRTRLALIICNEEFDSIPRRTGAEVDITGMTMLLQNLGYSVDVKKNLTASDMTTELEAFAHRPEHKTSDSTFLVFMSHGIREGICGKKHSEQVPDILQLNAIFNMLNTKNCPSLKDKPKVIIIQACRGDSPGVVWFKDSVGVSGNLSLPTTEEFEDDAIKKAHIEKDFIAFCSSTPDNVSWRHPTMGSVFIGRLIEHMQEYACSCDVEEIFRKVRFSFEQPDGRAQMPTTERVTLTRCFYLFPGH
Assay: Inhibition of caspase-1 (unknown origin) by fluorescence based analysis
Settings: not given

Row | SMILES | IC50
1 | O=C1C[C@H](NC(=O)[C@@H]2CCCN3C(=O)CC[C@H](NC(=O)c4nccc5ccccc45)C(=O)N23)[C@H](O)O1 | 1.3 nM

Target: T2, Caspase-8 (Homo sapiens, UniProt Q14790)
Assay: Inhibition of caspase-8 (unknown origin) by fluorescence based analysis
Settings: not given

T2 sequence (Q14790 217-374 limits assumed): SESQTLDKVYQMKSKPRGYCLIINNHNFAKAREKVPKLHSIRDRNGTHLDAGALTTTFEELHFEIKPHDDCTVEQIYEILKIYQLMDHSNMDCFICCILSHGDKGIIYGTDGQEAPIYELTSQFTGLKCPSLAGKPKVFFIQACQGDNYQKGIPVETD
T2 sequence (Q14790 385-479 limits assumed): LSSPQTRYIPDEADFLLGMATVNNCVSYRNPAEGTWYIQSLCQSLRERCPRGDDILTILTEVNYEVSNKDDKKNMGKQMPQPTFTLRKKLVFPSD

Row | SMILES | IC50
2 | O=C1C[C@H](NC(=O)[C@@H]2CCCN3C(=O)CC[C@H](NC(=O)c4nccc5ccccc45)C(=O)N23)[C@H](O)O1 | 0.12 nM

Tested on: not listed separately
Assay: Oral bioavailability in rat
Assay type: ADME, organism-based
Settings: in vivo

Row | SMILES | bioavailability
3 | O=C1C[C@H](NC(=O)[C@@H]2CCCN3C(=O)CC[C@H](NC(=O)c4nccc5ccccc45)C(=O)N23)[C@H](O)O1 | 4%

Tested on: not listed separately
Assay: Toxicity in Sprague-Dawley rat assessed as […] mortality at 12.5 micromol/kg
Settings: in vivo, 12.5 µmol/kg

Row | SMILES | mortality
4 | CC(=O)C[C@@H](C(=O)CCl)N(C(=O)[C@@H](NC(=O)[C@H](Cc1ccc(O)cc1)NC(C)=O)C(C)C)[C@@H](C)C(N)=O | 33%

Target: T1, Caspase-1
Assay: Inhibition of Caspase-1 (unknown origin)
Settings: not given

Row | SMILES | IC50
5 | CCC(C)(C)c1ccc(Oc2ccccc2S(=O)(=O)N[C@H](C=O)CC(=O)O)cc1 | 2200 nM
6 | C[C@H](NC(=O)C(NC(=O)c1ccc2ccccc2c1)C(=O)O)C(=O)N[C@H](CN=[N+]=[N-])CC(=O)O (some centres not stated) | 40 nM
7 | Cc1cccc(S(=O)(=O)N[C@H](C=O)CC(=O)O)c1-c1ccccc1 | 34400 nM
8 | CC(C)C(NC(=O)c1ccc2ccccc2c1)C(=O)N[C@@H](C)C(=O)N[C@H](CN=[N+]=[N-])CC(=O)O (some centres not stated) | 4.6 nM
9 | CCC(C)(C)c1ccc(Oc2ccccc2S(=O)(=O)N[C@H](C=O)CC(=O)O)cc1C | 1000 nM
10 | Cc1cc(Oc2ccccc2S(=O)(=O)N[C@H](C=O)CC(=O)O)ccc1C(C)C | 1000 nM
11 | CC(C)C(NC(=O)OCc1ccccc1)C(=O)N[C@@H](C)C(=O)NC(CC(=O)O)C(=O)CNS(=O)(=O)CCc1ccccc1 (some centres not stated) | 700 nM
12 | CC(C)(NC(=O)CNC(=O)c1ccc2ccccc2c1)C(=O)N[C@H](CN=[N+]=[N-])CC(=O)O | 7.9 nM
13 | O=C[C@H](CC(=O)O)NS(=O)(=O)c1ccccc1-c1cccc2ccccc12 | 11400 nM
14 | C[C@H](NC(=O)[C@H](CCC(=O)O)NC(=O)OCc1ccccc1)C(=O)NC(CC(=O)O)C(=O)CNS(=O)(=O)CCc1ccccc1 (some centres not stated) | 20 nM
15 | C[C@H](NC(=O)C(NC(=O)c1cc2ccccc2[nH]1)C(=O)O)C(=O)N[C@H](CN=[N+]=[N-])CC(=O)O (some centres not stated) | 75 nM

Target: T1, Caspase-1
Assay: Binding affinity to caspase-1 (unknown origin) assessed as inhibition constant
Settings: not given

Row | SMILES | Ki
16 | CC(C)C(NC(=O)OCc1ccccc1)C(=O)N[C@@H](C)C(=O)NC(CC(=O)O)C(=O)CNS(=O)(=O)CCc1ccccc1 (some centres not stated) | 4 nM
17 | O=C(CN1C(=O)[C@H](NC(=O)c2ccccc2)CN(C(=O)CCc2ccccc2)c2ccccc21)N[C@H]1CC(=O)OC1O (some centres not stated) | 850 nM
18 | C[C@H](NC(=O)[C@H](CCC(=O)O)NC(=O)OCc1ccccc1)C(=O)NC(CC(=O)O)C(=O)CNS(=O)(=O)CCc1ccccc1 (some centres not stated) | 20 nM

Target: T1, Caspase-1
Assay: Binding affinity to human caspase-1 assessed as apparent inhibition constant
Settings: read-out: Ki(app)

Row | SMILES | Ki
19 | O=C[C@H](CC(=O)O)NC(=O)CCCCCNC(=O)c1ccc(Nc2cnc3ccccc3n2)cc1 | 150 nM

Target: T2, Caspase-8
Assay: Binding affinity to Caspase-8 (unknown origin) using Ac-IETD-AFC as substrate assessed as inhibition constant
Settings: not given

Row | SMILES | Ki
20 | CC(C)[C@H](NC(=O)CCc1ccccc1)C(=O)N[C@@H](C)C(=O)N[C@@H](CC(=O)O)C(=O)CCc1ccccc1 | 610 nM
21 | CC(C)[C@H](NC(=O)CCc1ccccc1)C(=O)N[C@@H](C)C(=O)N[C@@H](CC(=O)O)C(=O)CCCc1ccccc1 | 100 nM
22 | CC(=O)N[C@@H](Cc1ccc(O)cc1)C(=O)N[C@H](C(=O)N[C@@H](C)C(=O)N[C@@H](CC(=O)O)C(=O)CCCCCc1ccccc1)C(C)C | 18.5 nM
23 | CC(=O)N[C@@H](Cc1ccc(O)cc1)C(=O)N[C@H](C(=O)N[C@@H](C)C(=O)N[C@@H](CC(=O)O)C(=O)CCCCc1ccccc1)C(C)C | 42 nM

Target: T1, Caspase-1
Assay: Binding affinity to N-terminal His-tagged Caspase-1 (unknown origin) assessed as inhibition constant
Settings: not given

Row | SMILES | Ki
24 | CC(=O)N[C@H](C(=O)N[C@@H](CC(=O)O)C(=O)COC(=O)Cc1c(Cl)cccc1Cl)C(C)C | 80 nM
25 | CC(=O)N[C@H](C(=O)N[C@@H](CC(=O)O)C(=O)COC(=O)Cc1c(Cl)ccc(Cl)c1Cl)C(C)C | 113 nM

Target: T1, Caspase-1
Assay: Inhibition of N-terminal His-tagged Caspase-1 (unknown origin)
Settings: not given

Row | SMILES | IC50
26 | O=C(O)CC(NC(=O)C(NC(=O)OCc1ccccc1)c1ccccc1)C(=O)COC(=O)c1ccccc1 (configuration not stated) | 820 nM
27 | COC(=O)CC(NC(=O)C(NC(=O)OCc1ccccc1)c1ccccc1)C(=O)COC(=O)c1ccccc1 (configuration not stated) | 5560 nM

Target: T1, Caspase-1
Assay: Inhibition of caspase-1 (unknown origin) using Ac-Tyr-Val-Ala-Asp-AFC as fluorogenic substrate by fluorescence based analysis
Settings: not given

Row | SMILES | IC50
28 | CCCCN(CC(=O)N[C@@H](CC(=O)O)C(=O)COc1ccccc1)C(=O)[C@@H](NC(=O)c1ccc2ccccc2c1)C(C)C | 22 nM
29 | CC(C)[C@H](NC(=O)c1ccc2ccccc2c1)C(=O)N(CCCn1ccnc1)CC(=O)N[C@@H](CC(=O)O)C(=O)COc1ccccc1 | 13 nM
30 | CC(C)[C@H](NC(=O)c1ccc2ccccc2c1)C(=O)N1CCC[C@H]1C(=O)N[C@H](C=O)CC(=O)NS(C)(=O)=O | 38 nM

Target: Interleukin-1 beta (Homo sapiens) (UniProt P01584)
Assay: Inhibition of human Interleukin-1beta at 30 uM relative to control
Settings: not given

Interleukin-1 beta (Homo sapiens), sequence (P01584 117-269 limits assumed): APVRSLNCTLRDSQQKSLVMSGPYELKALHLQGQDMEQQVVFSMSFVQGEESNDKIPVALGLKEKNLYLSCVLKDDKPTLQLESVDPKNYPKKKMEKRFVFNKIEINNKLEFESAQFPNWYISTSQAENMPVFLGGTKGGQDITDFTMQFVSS

Row | SMILES | inhibition
31 | CCOC(=O)c1ccc(-n2sc(-c3ccccc3Cl)cc2=O)cc1 | 87%
32 | O=c1cc(-c2ccccc2Cl)sn1-c1ccc(C(F)(F)F)cc1 | 83%
33 | N#Cc1ccc(-n2sc(-c3ccccc3Cl)cc2=O)cc1 | 89%

Target: T1, Caspase-1
Assay: Inhibition of Interleukin-1beta-converting enzyme (unknown origin)
Settings: not given

Row | SMILES | IC50
34 | COC(=O)[C@]1(C)CC[C@]2(C)CC[C@]3(C)C4=CC=C5C(=CC(=O)C(O)=C5C)[C@]4(C)CC[C@@]3(C)[C@@H]2C1 [PRISTIMERIN] | 56 nM
35 | COC(=O)c1ccc(NC(=O)CCCCC(=O)Nc2ccc3c(c2)C(=O)C(=O)NC3=O)cc1 | 19 nM
36 | CC1=C(O)C(=O)C=C2C1=CC=C1[C@@]2(C)CC[C@@]2(C)[C@@H]3C[C@@H](C)C(=O)C[C@]3(C)CC[C@]12C [TINGENONE] | 58 nM
37 | CC1=C(O)C(=O)C=C2C1=CC=C1[C@@]2(C)CC[C@@]2(C)[C@@H]3C[C@](C)(C(=O)O)CC[C@]3(C)CC[C@]12C [CELASTROL] | 40 nM
38 | COC(=O)[C@]1(C)CC[C@]2(C)CC[C@]3(C)C4=CCc5c(cc(OC(C)=O)c(OC(C)=O)c5C)[C@]4(C)CC[C@@]3(C)[C@@H]2C1 [PRISTIMEROL DIACETATE] | 79 nM

Target: Caspase-1 (Homo sapiens) (UniProt P29466)
Assay: Binding affinity to caspase-1 (unknown origin) assessed as inhibition constant
Settings: not given

Row | SMILES | Ki
39 | O=C[C@H](CC(=O)O)NC(=O)Cn1c(-c2ccccc2)ccc(NC(=O)CCc2ccccc2)c1=O | 900 nM
40 | O=C[C@H](CC(=O)O)NC(=O)[C@@H]1CCCN2C(=O)CC[C@H](NC(=O)c3ccc(OCC(=O)O)cc3)C(=O)N12 | 1 nM
41 | O=CC(CC(=O)O)NC(=O)Cn1c(Cc2ccccc2)ccc(NC(=O)CCc2ccccc2)c1=O (single isomer, unassigned) | 150 nM
42 | CC(C(=O)NC(C=O)CC(=O)O)n1c(Cc2ccccc2)ccc(NC(=O)CCc2ccccc2)c1=O (single isomer, unassigned) | 970 nM
